Patent US10975068B2, “6-aminopyridin-3-yl thiazoles as modulators of RORγT” (Janssen Pharmaceutica NV, priority 2016, dated 2021)
Like-named read-outs stand apart in the source and are kept apart here.

Experiments:
[1] = biological target: human RORγt ligand binding domain (RORγt LBD) (Homo sapiens (Human), UniProt P51449); assay: RORγt ThermoFluor® assay (thermal shift binding); details: for Kd: read-out: ThermoFluor® Assay, Kd
Summary of the method: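 Binding was inferred from thermal stabilisation (ΔTm) of the E. coli-expressed RORγt LBD (0.065 mg/mL), monitored by 1,8-ANS (60 μM) emission at 500 nm during a 1 °C/min ramp. Buffer was Hepes 100 mM pH 7.0 with NaCl, GSH and Tween-20.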

[2] = biological target: full-length human RORγt (Homo sapiens (Human), UniProt P51449); assay: RORγt (full-length human) reporter assay, Conditions B or C; type: cell-based; details: for inhibition at 3 µM: at 3 μM compound concentration; for IC50: read-out: RORγt (FL) Reporter Assay B or C, IC50; for RORγt (FL) Reporter Assay B or C, % inhibition (value marked *): marked *: footnote not given
full-length human RORγt, sequence (P51449 other isoform, or with tags, fused parts or gaps): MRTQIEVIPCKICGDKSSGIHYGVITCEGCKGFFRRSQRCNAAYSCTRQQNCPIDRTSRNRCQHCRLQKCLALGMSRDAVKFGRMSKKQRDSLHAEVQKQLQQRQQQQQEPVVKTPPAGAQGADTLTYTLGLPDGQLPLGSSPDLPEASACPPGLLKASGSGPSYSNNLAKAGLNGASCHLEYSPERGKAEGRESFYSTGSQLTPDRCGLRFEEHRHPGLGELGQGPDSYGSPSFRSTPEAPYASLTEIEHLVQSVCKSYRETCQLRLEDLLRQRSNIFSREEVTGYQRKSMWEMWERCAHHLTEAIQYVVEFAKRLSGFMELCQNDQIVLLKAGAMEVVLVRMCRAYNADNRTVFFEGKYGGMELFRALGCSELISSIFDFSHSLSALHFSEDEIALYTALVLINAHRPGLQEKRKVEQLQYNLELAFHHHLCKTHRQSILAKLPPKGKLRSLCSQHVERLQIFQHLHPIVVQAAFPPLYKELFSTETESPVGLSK
Summary of the method: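 Readout is dual luciferase: firefly (GAL4-driven) normalized to DMSO-only and saturating-reference controls, then to CMV-Renilla. Full-length human RORγt fused to GAL4-DBD was transiently expressed in HEK293T; compound exposure ran overnight (16-20 h) starting 4-6 h after transfection, final FBS 1.3%, DMSO 0.1%.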

[3] = read-out: RORγt (FL) Reporter Assay B or C, % inhibition
[4] = compared to Comparator Example 1
[5] = compared to Comparator Example 2

human RORγt ligand binding domain (RORγt LBD), sequence (P51449 other isoform, or with tags, fused parts or gaps): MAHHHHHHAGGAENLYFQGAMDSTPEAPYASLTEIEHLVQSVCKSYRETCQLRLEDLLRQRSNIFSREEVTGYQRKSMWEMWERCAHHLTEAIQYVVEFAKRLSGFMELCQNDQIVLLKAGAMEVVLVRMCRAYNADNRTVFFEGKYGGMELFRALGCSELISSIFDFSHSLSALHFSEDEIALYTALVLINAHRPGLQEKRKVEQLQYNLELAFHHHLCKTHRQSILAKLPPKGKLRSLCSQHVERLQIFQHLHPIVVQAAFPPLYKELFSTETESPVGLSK

| Compound | Kd [1] | inhibition at 3 µM [2, 3] | IC50 [2] | RORγt (FL) Reporter Assay B or C, % inhibition (value marked *) ([2]; Conditions B or C) | IC50 ([2]; Conditions B or C) | further results |
| --- | --- | --- | --- | --- | --- | --- |
| C[C@H](Nc1cc(C(F)F)c(-c2sc(C(=O)NCC(C)(C)O)nc2C(=O)N2CCC[C@@H]2C)cn1)C(C)(C)C [Example 299, 5-(4-(Difluoromethyl)-6-(((S)-3,3-dimethylbutan-2-yl)amino)pyridin-3-yl)-N-(2-hydroxy-2-methylpropyl)-4-((S)-2-methylpyrrolidine-1-carbonyl)thiazole-2-carboxamide] | 0.91 nM | 103% | 11 nM |  |  |  |
| C[C@H]1CCCN1C(=O)c1nc(C(=O)NC2CCS(=O)(=O)CC2)sc1-c1cnc(NC(C)(C)C)cc1C(F)F [Example 435, 5-[6-(tert-Butylamino)-4-(difluoromethyl)-3-pyridyl]-N-(1,1-dioxothian-4-yl)-4-[(2S)-2-methylpyrrolidine-1-carbonyl]thiazole-2-carboxamide] | 2.3 nM | 105% | 21 nM |  |  |  |
| CCC(C)(C)Nc1cc(C(F)F)c(-c2sc(C(=O)NCC(C)(C)O)nc2C(=O)N2CCCC[C@@H]2C)cn1 [Example 95, (S)-5-(4-(Difluoromethyl)-6-(tert-pentylamino)pyridin-3-yl)-N-(2-hydroxy-2-methylpropyl)-4-(2-methylpiperidine-1-carbonyl)thiazole-2-carboxamide] | 0.15 nM |  |  | 109* % | 9.5 nM |  |
| CC[C@H](Nc1cc(C(F)F)c(-c2sc(C(=O)NC3CCOCC3)nc2C(=O)N2CCC[C@@H]2C)cn1)C(F)(F)F [Example 394, 5-[4-(Difluoromethyl)-6-[[(1S)-1-(trifluoromethyl)propyl]amino]-3-pyridyl]-4-[(2S)-2-methylpyrrolidine-1-carbonyl]-N-tetrahydropyran-4-yl-thiazole-2-carboxamide] | 2 nM | 114% | 34 nM |  |  |  |
| C[C@H]1CCCN1C(=O)c1nc(C(=O)NCC(C)(C)O)sc1-c1cnc(NC2CCCCC2)c(C#N)c1 [Example 146, (S)-5-(5-Cyano-6-(cyclohexylamino)pyridin-3-yl)-N-(2-hydroxy-2-methylpropyl)-4-(2-methylpyrrolidine-1-carbonyl)thiazole-2-carboxamide] | 210 nM |  |  | 98* % | 830 nM | fold improvement in RORγt Thermofluor® binding assay activity [1, 4]: 14 fold; fold improvement in RORγt Thermofluor® binding assay activity [1, 5]: 27 fold; IC50 ([2]; HEK293T cells): 830 nM; fold improvement in RORγt reporter assay activity [2, 4]: 7.2 fold; fold improvement in RORγt reporter assay activity [2, 5]: 3.6 fold |
| CC[C@H](Nc1cc(C(F)F)c(-c2sc(C(=O)N[C@H]3COC[C@@H]3O)nc2C(=O)N2CCC[C@@H]2C)cn1)C(F)(F)F [Example 239, 5-[4-(Difluoromethyl)-6-[[(1S)-1-(trifluoromethyl)propyl]amino]-3-pyridyl]-N-[(3S,4R)-4-hydroxytetrahydrofuran-3-yl]-4-[(2S)-2-methylpyrrolidine-1-carbonyl]thiazole-2-carboxamide] | 5.4 nM |  |  | 105* % | 19 nM |  |
| CC[C@H](Nc1cc(C(F)F)c(-c2sc(C(=O)N[C@@H](C)[C@@H](C)O)nc2C(=O)N2CCC[C@@H]2C)cn1)C(F)(F)F (relative stereo) [Example 219, 5-(4-(Difluoromethyl)-6-(((S)-1,1,1-trifluorobutan-2-yl)amino)pyridin-3-yl)-N-((2S*,3R*)-3-hydroxybutan-2-yl)-4-((S)-2-methylpyrrolidine-1-carbonyl)thiazole-2-carboxamide] | 4.1 nM |  |  | 112* % | 20 nM |  |
| C[C@H](Nc1cc(C(F)F)c(-c2sc(C(=O)N[C@@H]3COC[C@@H]3O)nc2C(=O)N2CCC[C@@H]2C)cn1)C(F)(F)F (single isomer, unassigned) [Example 159, 5-(4-(Difluoromethyl)-6-(((S)-1,1,1-trifluoropropan-2-yl)amino)pyridin-3-yl)-N-((3R*,4R*)-4-hydroxytetrahydrofuran-3-yl)-4-((S)-2-methylpyrrolidine-1-carbonyl)thiazole-2-carboxamide] | 22 nM |  |  |  | 32 nM | RORγt (FL) Reporter Assay B or C, % inhibition (value marked ***) ([2]; Conditions B or C, marked ***: footnote not given): 93*** % |
| CC[C@H](Nc1cc(C(F)F)c(-c2sc(C(=O)N[C@@H](C)[C@H](C)O)nc2C(=O)N2CCC[C@@H]2C)cn1)C(F)(F)F (relative stereo) [Example 217, 5-(4-(Difluoromethyl)-6-(((S)-1,1,1-trifluorobutan-2-yl)amino)pyridin-3-yl)-N-((2S*,3S*)-3-hydroxybutan-2-yl)-4-((S)-2-methylpyrrolidine-1-carbonyl)thiazole-2-carboxamide] | 3.2 nM |  |  | 109* % | 19 nM |  |
| C[C@H](Nc1cc(C(F)F)c(-c2sc(C(=O)NC3CCS(=O)(=O)CC3)nc2C(=O)N2CCC[C@@H]2C)cn1)C(F)(F)F [Example 187, 5-(4-(Difluoromethyl)-6-(((S)-1,1,1-trifluoropropan-2-yl)amino)pyridine-3-yl)-N-(1,1-dioxidotetrahydro-2H-thiopyran-4-yl)-4-((S)-2-methylpyrrolidine-1-carbonyl)thiazole-2-carboxamide] | 6.8 nM |  |  | 85* % | 140 nM |  |
| C[C@H]1CCCN1C(=O)c1nc(C(=O)NCC(C)(C)O)sc1-c1cnc(NC2(C(F)(F)F)CCC2)cc1C(F)(F)F [Example 104, (S)—N-(2-Hydroxy-2-methylpropyl)-4-(2-methylpyrrolidine-1-carbonyl)-5-(4-(trifluoromethyl)-6-((1-(trifluoromethyl)cyclobutyl)amino)pyridin-3-yl)thiazole-2-carboxamide] | 0.64 nM |  |  | 110* % | 25 nM |  |
| CC[C@H](Nc1cc(C(F)F)c(-c2sc(C(=O)N3CC4CC(C3)O4)nc2C(=O)N2CCC[C@@H]2C)cn1)C(F)(F)F [Example 392, [5-[4-(Difluoromethyl)-6-[[(1S)-1-(trifluoromethyl)propyl]amino]-3-pyridyl]-2-(6-oxa-3-azabicyclo[3.1.1]heptane-3-carbonyl)thiazol-4-yl]-[(2S)-2-methylpyrrolidin-1-yl]methanone] | 44 nM | 102% | 130 nM |  |  |  |
| CC[C@H](Nc1cc(C(F)F)c(-c2sc(C(=O)N[C@H]3CC[C@@H]3O)nc2C(=O)N2C3CCC2CC3)cn1)C(F)(F)F (relative stereo) [Example 406, 4-((1s,4s)-7-Azabicyclo[2.2.1]heptane-7-carbonyl)-5-(4-(difluoromethyl)-6-(((S)-1,1,1-trifluorobutan-2-yl)amino)pyridin-3-yl)-N-((1S*,2S*)-2-hydroxycyclobutyl)thiazole-2-carboxamide] | 2.7 nM |  | 81 nM |  |  | inhibition at 0.3 µM ([2]; at 0.3 μM compound concentration, read-out: RORγt (FL) Reporter Assay B or C, % inhibition): 92% |
| C[C@H](Nc1cc(C(F)F)c(-c2sc(C(=O)N[C@H]3CCC[C@@H]3O)nc2C(=O)N2CCC[C@@H]2C)cn1)C(F)(F)F [Example 285, 5-(4-(Difluoromethyl)-6-(((S)-1,1,1-trifluoropropan-2-yl)amino)pyridin-3-yl)-N-((1S,2S)-2-hydroxycyclopentyl)-4-((S)-2-methylpyrrolidine-1-carbonyl)thiazole-2-carboxamide] | 2.9 nM | 104% | 64 nM |  |  |  |
